Measured values published in BindingDB's records for doi:10.1021/acs.biochem.7b00151 (University of Missouri, 2017).

Each compound was assayed against T1, Tyrosine-protein phosphatase non-receptor type 1 [1-322] (Human, UniProt P18031) (assay: PTP1B Activity Assay). Conditions: pH 7.
T1 construct: 1-322
T1 sequence (P18031 whole entry): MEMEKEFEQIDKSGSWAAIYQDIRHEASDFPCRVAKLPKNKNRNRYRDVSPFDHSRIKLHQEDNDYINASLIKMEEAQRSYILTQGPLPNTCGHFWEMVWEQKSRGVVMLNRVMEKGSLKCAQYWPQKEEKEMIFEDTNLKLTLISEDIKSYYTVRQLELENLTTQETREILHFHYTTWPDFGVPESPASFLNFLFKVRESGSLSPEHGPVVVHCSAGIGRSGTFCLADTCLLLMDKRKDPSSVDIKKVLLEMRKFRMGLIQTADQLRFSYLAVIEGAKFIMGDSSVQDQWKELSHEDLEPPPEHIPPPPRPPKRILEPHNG
Experimental: The test compounds were introduced into the solutions as stock solutions dissolved in DMSO. After 20−30 s, the amount of PTP1B activity in the assays was assessed by measuring the increase in absorbance at 410 nm as a function of time resulting from the enzyme-mediated conversion of p-NPP to p-nitrophenolate.

Compound	IC50 [µM]	Ki [µM]
Cc1ccc(-c2ccc(NC(=O)CBr)cc2)cc1N1CC(=O)NS1(=O)=O [2-Bromo-N-[3'-(1,1-dioxido-4-oxo-1,2,5-thiadiazolidin-2-yl)-4'-methyl[1,1'-biphenyl]-4-yl]-acetamide (5a)]	54	27
Cc1ccc(-c2ccccc2)cc1N1CC(=O)NS1(=O)=O [5-(4-Methyl[1,1'-biphenyl]-3-yl)-1,2,5-thiadiazolidin-3-one 1,1-Dioxide (2b)]	77	38.5
CC(=O)Nc1ccc(-c2ccc(C)c(N3CC(=O)NS3(=O)=O)c2)cc1 [N-[3'-(1,1-Dioxido-4-oxo-1,2,5-thiadiazolidin-2-yl)-4'-methyl[1,1'-biphenyl]-4-yl]acetamide (5b)]	64	32
